Data as given in patent US20250002464A1, “NOVEL COMPOUND AND PHARMACEUTICAL COMPOSITION COMPRISING SAME” (SAPIENSBIO INC., priority 2021, published 2025).

Tested on: α-SMA
Test: α-SMA expression inhibitory ability in MRC5 cell line (Western blotting)
Assay type: cell-based
Conditions: TGF-β1 (10 ng/mL), 72 hours, relative to TGF-β1 only
Summary of the method: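 MRC5 cells given compound at 10 μM, then TGF-β1 (10 ng/mL) 2 h later; after 72 h, lysates probed for α-SMA by Western blot. Inhibition is α-SMA level relative to TGF-β1 alone, binned A ≥70%, B 50–<70%, C <50%.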

| SMILES | inhibition at 10 µM [%] |
| --- | --- |
| CC(C(=O)N1CCN(c2ccc(F)cc2)c2ccccc21)N1CCCC1 (stereo not shown) [Compound 33, 1-(4-(4-fluorophenyl)-3,4-dihydroquinoxaline-1(2H)-yl)-2-(pyrrolidin-1-yl)propan-1-one] | 50 to 70 |
| O=C(CN1CCCC1)N1CCN(Cc2ccccn2)c2ccccc21 [Compound 117, 1-(4-(pyridin-2-ylmethyl)-3,4-dihydroquinoxaline-1(2H)-yl)-2-(pyrrolidin-1-yl)ethan-1-one] | < 50 |
| CC(C(=O)N1CCN(c2ccccc2)c2cc(F)ccc21)N1CCN(C)CC1 (stereo not shown) [Compound 11, 1-(6-fluoro-4-phenyl-3,4-dihydroquinoxaline-1(2H)-yl)-2-(4-methylpiperazin-1-yl)propan-1-one] | 50 to 70 |
| CC(C(=O)N1CCN(c2ccc(F)cc2)c2cc(F)ccc21)N1CCCCC1 (stereo not shown) [Compound 53, 1-(6-fluoro-4-(4-fluorophenyl)-3,4-dihydroquinoxaline-1(2H)-yl)-2-(piperidin-1-yl)propan-1-one] | < 50 |
| CC(C(=O)N1CCN(C(C)C)c2ccccc21)N1CCCCC1 (stereo not shown) [Compound 181, 1-(4-isopropyl-3,4-dihydroquinoxaline-1(2H)-yl)-2-(piperidin-1-yl)propan-1-one] | < 50 |
| CC(C(=O)N1CCN(c2ccccc2)c2cc(F)ccc21)N1CCC[C@H]1C (stereo partly shown) [Compound 13] | < 50 |
| CN1CCN(CCC(=O)N2CCN(C3CCCCC3)c3ccccc32)CC1 [Compound 188, 1-(4-cyclohexyl-3,4-dihydroquinoxaline-1(2H)-yl)-3-(4-methylpiperazin-1-yl)propan-1-one] | 50 to 70 |
| O=C(CCN1CC[C@H](O)C1)N1CCN(c2ccc(F)cc2)c2ccccc21 [Compound 23, (S)-1-(4-(4-fluorophenyl)-3,4-dihydroquinoxaline-1(2H)-yl)-3-(3-hydroxypyrrolidin-1-yl)propan-1-one] | ≥ 70 |
| CC(C(=O)N1CCN(c2ccc(F)cc2)c2cc(F)ccc21)N1CCCC[C@H]1C (stereo partly drawn) [Compound 49, 1-(6-fluoro-4-(4-fluorophenyl)-3,4-dihydroquinoxaline-1(2H)-yl)-2-((R)-2-methylpiperidin-1-yl)propan-1-one] | < 50 |
| CC(C(=O)N1CCN(c2ccccc2)c2ccccc21)N1CCN2CCCC2C1 (stereo not shown) [Compound 64, 2-(hexahydropyrrolo[1,2-a]pyrazin-2(1H)-yl)-1-(4-phenyl-3,4-dihydroquinoxaline-1(2H)-yl)propan-1-one] | < 50 |
| C[C@@H]1CCCCN1C(=O)CN1CCN(c2ccccc2)c2ccccc21 [Compound 70, (R)-1-(2-methylpiperidin-1-yl)-2-(4-phenyl-3,4-dihydroquinoxaline-1(2H)-yl)ethan-1-one] | 50 to 70 |
| O=C(CCN1CCCC1)N1CCN(Cc2ccccc2)c2ccccc21 [Compound 78, 1-(4-benzyl-3,4-dihydroquinoxaline-1(2H)-yl)-3-(pyrrolidin-1-yl)propan-1-one] | 50 to 70 |
| O=C(CN1CCN(c2ccccc2)c2ccccc21)N1CCN(C2CC2)CC1 [Compound 76, 1-(4-cyclopropylpiperazin-1-yl)-2-(4-phenyl-3,4-dihydroquinoxaline-1(2H)-yl)ethan-1-one] | < 50 |
| CC(C(=O)N1CCN(C(=O)c2ccccc2)c2ccccc21)N1CCN(C)CC1 (stereo not shown) [Compound 201, 1-(4-benzoyl-3,4-dihydroquinoxaline-1(2H)-yl)-2-(4-methylpiperazin-1-yl)propan-1-one] | < 50 |
| CC(C)CN1CCN(C(=O)CN2CCCCC2)c2ccccc21 [Compound 175, 1-(4-isobutyl-3,4-dihydroquinoxaline-1(2H)-yl)-2-(piperidin-1-yl)ethan-1-one] | < 50 |
| O=C(CN1CCN(c2ccccc2)c2ccccc21)N1CCCC(O)C1 (stereo not shown) [Compound 77, 1-(3-hydroxypiperidin-1-yl)-2-(4-phenyl-3,4-dihydroquinoxaline-1(2H)-yl)ethan-1-one] | < 50 |
| CC(C(=O)N1CCN(c2ccccc2)c2ccccc21)N1CCN(C)CC1 (stereo not shown) [Compound 62, 2-(4-methylpiperazin-1-yl)-1-(4-phenyl-3,4-dihydroquinoxaline-1(2H)-yl)propan-1-one] | < 50 |
| O=C(CN1CCCC1)N1CCN(C2CCCCC2)c2ccccc21 [Compound 193, 1-(4-cyclohexyl-3,4-dihydroquinoxaline-1(2H)-yl)-2-(pyrrolidin-1-yl)ethan-1-one] | < 50 |
| CC(C(=O)N1CCN(c2ccc(F)cc2)c2cc(F)ccc21)N1CCN(C)CC1 (stereo not shown) [Compound 52, 1-(6-fluoro-4-(4-fluorophenyl)-3,4-dihydroquinoxaline-1(2H)-yl)-2-(4-methylpiperazin-1-yl)propan-1-one] | < 50 |
| O=C(CN1CCCCC1)N1CCN(C2CCCCC2)c2ccccc21 [Compound 194, 1-(4-cyclohexyl-3,4-dihydroquinoxaline-1(2H)-yl)-2-(piperidin-1-yl)ethan-1-one] | < 50 |

| SMILES | inhibition at 10 µM [%] |
| --- | --- |
| CN1CCN(CC(=O)N2CCN(Cc3ccccn3)c3ccccc32)CC1 [Compound 118, 2-(4-methylpiperazin-1-yl)-1-(4-(pyridin-2-ylmethyl)-3,4-dihydroquinoxaline-1(2H)-yl)ethan-1-one] | < 50 |
| C[C@H]1CCCCN1C(=O)CN1CCN(c2ccccc2)c2ccccc21 [Compound 71, (S)-1-(2-methylpiperidin-1-yl)-2-(4-phenyl-3,4-dihydroquinoxaline-1(2H)-yl)ethan-1-one] | < 50 |
| O=C(CCN1CCCC1)N1CCN(CC2CC2)c2ccccc21 [Compound 161, 1-(4-(cyclopropylmethyl)-3,4-dihydroquinoxaline-1(2H)-yl)-3-(pyrrolidin-1-yl)propan-1-one] | < 50 |
| O=C(CN1CCN(c2ccccc2)c2ccccc21)N1CCN2CCCC2C1 (stereo not shown) [Compound 75] | 50 to 70 |
| O=C(CCN1CCN(C2CC2)CC1)N1CCN(c2ccc(F)cc2)c2cc(F)ccc21 [Compound 43, 3-(4-cyclopropylpiperazin-1-yl)-1-(6-fluoro-4-(4-fluorophenyl)-3,4-dihydroquinoxaline-1(2H)-yl)propan-1-one] | < 50 |
| CN1CCN(CCC(=O)N2CCN(Cc3cccc(Cl)c3)c3ccccc32)CC1 [Compound 98, 1-(4-(3-chlorobenzyl)-3,4-dihydroquinoxaline-1(2H)-yl)-3-(4-methylpiperazin-1-yl)propan-1-one] | < 50 |
| CC(C)CN1CCN(C(=O)C(C)N2CCCCC2)c2ccccc21 (stereo not shown) [Compound 172, 1-(4-isobutyl-3,4-dihydroquinoxaline-1(2H)-yl)-2-(piperidin-1-yl)propan-1-one] | < 50 |
| CN1CC[C@H](NCCC(=O)N2CCN(c3ccc(F)cc3)c3ccccc32)C1 [Compound 27, (S)-1-(4-(4-fluorophenyl)-3,4-dihydroquinoxaline-1(2H)-yl)-3-((1-methylpyrrolidin-3-yl)amino)propan-1-one] | ≥ 70 |
| O=C(CN1CCCC1)N1CCN(c2cccc(Cl)c2)c2ccccc21 [Compound 138, 1-(4-(3-chlorophenyl)-3,4-dihydroquinoxaline-1(2H)-yl)-2-(pyrrolidin-1-yl)ethan-1-one] | ≥ 70 |
| C[C@@H]1CCCCN1CCC(=O)N1CCN(c2ccc(F)cc2)c2cc(F)ccc21 [Compound 41, (R)-1-(6-fluoro-4-(4-fluorophenyl)-3,4-dihydroquinoxaline-1(2H)-yl)-3-(2-methylpiperidin-1-yl)propan-1-one] | < 50 |
| O=C(CCN1CCCC1)N1CCN(c2cccc(Cl)c2)c2ccccc21 [Compound 134, 1-(4-(3-chlorophenyl)-3,4-dihydroquinoxaline-1(2H)-yl)-3-(pyrrolidin-1-yl)propan-1-one] | ≥ 70 |
| C[C@@H]1CCCCN1CCC(=O)N1CCN(c2ccc(F)cc2)c2ccccc21 [Compound 19, (R)-1-(4-(4-fluorophenyl)-3,4-dihydroquinoxaline-1(2H)-yl)-3-(2-methylpiperidin-1-yl)propan-1-one] | < 50 |
| O=C(CN1CCCCC1)N1CCN(Cc2cccc(Cl)c2)c2ccccc21 [Compound 103, 1-(4-(3-chlorobenzyl)-3,4-dihydroquinoxaline-1(2H)-yl)-2-(piperidin-1-yl)ethan-1-one] | 50 to 70 |
| CC(C(=O)N1CCN(Cc2ccc(Cl)cc2)c2ccccc21)N1CCN(C)CC1 (stereo not shown) [Compound 110, 1-(4-(4-chlorobenzyl)-3,4-dihydroquinoxaline-1(2H)-yl)-2-(4-methylpiperazin-1-yl)propan-1-one] | 50 to 70 |
| O=C(CCN1CC[C@H](O)C1)N1CCN(c2ccc(F)cc2)c2cc(F)ccc21 [Compound 44, (S)-1-(6-fluoro-4-(4-fluorophenyl)-3,4-dihydroquinoxaline-1(2H)-yl)-3-(3-hydroxypyrrolidin-1-yl)propan-1-one] | ≥ 70 |
| O=C(CN1CCCC1)N1CCN(c2ccccn2)c2ccccc21 [Compound 152] | ≥ 70 |
| CC(C(=O)N1CCN(C(=O)c2ccccc2)c2ccccc21)N1CCCC1 (stereo not shown) [Compound 199, 1-(4-benzoyl-3,4-dihydroquinoxaline-1(2H)-yl)-2-(pyrrolidin-1-yl)propan-1-one] | < 50 |
| O=C(CCN1CCOCC1)N1CCN(c2ccccc2)c2cc(F)ccc21 [Compound 2, 1-(6-fluoro-4-phenyl-3,4-dihydroquinoxaline-1(2H)-yl)-3-morpholinopropan-1-one] | < 50 |
| CN1CCN(CCC(=O)N2CCN(c3cccc(Cl)c3)c3ccccc32)CC1 [Compound 135, 1-(4-(3-chlorophenyl)-3,4-dihydroquinoxaline-1(2H)-yl)-3-(4-methylpiperazin-1-yl)propan-1-one] | ≥ 70 |
| O=C(CN1CCCCC1)N1CCN(c2ccccn2)c2ccccc21 [Compound 153, 2-(piperidin-1-yl)-1-(4-(pyridin-2-yl)-3,4-dihydroquinoxaline-1(2H)-yl)ethan-1-one] | ≥ 70 |
